In brackets after ≈: the same amount, converted by molar mass.
Columns and labels:
Assay type in all cases: cell-based
[1] = test system: P-388 (suspension culture of a lymphoid neoplasm from DBA/2 mouse); assay: Antitumour screening, P-388 cell growth (adapted Bergeron method); details: approximate IC50, three days of incubation, growth vs control wells
Experimental: (§1) Cell Cultures. Cells were maintained in logarithmic phase of growth in Eagle's Minimum Essential Medium, with Earle's Balanced Salts, with 2.0 mM L-glutamine, with non-essential amino acids, without sodium bicarbonate (EMEM/neaa); supplemented with 10% Fetal Calf Serum (FCS), 10^−2 M sodium bicarbonate and 0.1 g/l penicillin-G+streptomycin sulfate.
(§2) A simple screening procedure has been carried out to determine and compare the antitumour activity of these compounds, using an adapted form of the method described by Bergeron et al (1984). The tumour cell line employed were P-388 (suspension culture of a lymphoid neoplasm from DBA/2 mouse), A-549 (monolayer culture of a human lung carcinoma), HT-29 (monolayer culture of a human colon carcinoma) and MEL-28 (monolayer culture of a human melanoma).
(§3) P-388 cell were seeded into 16 mm wells at 1×10^4 cells per well in 1 ml aliquots of MEM 5FCS containing the indicated concentration of drug. A separate set of cultures without drug was seeded as control growth to ensure that cells remained in exponential phase of growth. All determinations were carried out in duplicate. After three days of incubation at 37° C., 10% CO2 in a 98% humid atmosphere, an approximate IC50 was determined by comparing the growth in wells with drug to the growth in wells contol.

[2] = test system: A-549 (monolayer culture of a human lung carcinoma); assay: Antitumour screening, A-549 cell growth (crystal violet); details: approximate IC50, three days of incubation
Experimental: as §1, §2
as §3, with “A-549, HT-29 and MEL-28” for “P-388 cell”, “2×10^4” for “1×10^4”, “10FCS” for “5FCS”, “the wells were stained with 0.1% Crystal Violet. An” for “an”, “control.” for “contol.”

[3] = test system: HT-29 (monolayer culture of a human colon carcinoma); assay: Antitumour screening, HT-29 cell growth (crystal violet); details: approximate IC50, three days of incubation
Experimental: as §1, §2
as §3, with “A-549, HT-29 and MEL-28” for “P-388 cell”, “2×10^4” for “1×10^4”, “10FCS” for “5FCS”, “the wells were stained with 0.1% Crystal Violet. An” for “an”, “control.” for “contol.”

[4] = test system: MEL-28 (monolayer culture of a human melanoma); assay: Antitumour screening, MEL-28 cell growth (crystal violet); details: approximate IC50, three days of incubation
Experimental: as §1, §2
as §3, with “A-549, HT-29 and MEL-28” for “P-388 cell”, “2×10^4” for “1×10^4”, “10FCS” for “5FCS”, “the wells were stained with 0.1% Crystal Violet. An” for “an”, “control.” for “contol.”

Row | IC50 P 388 [1] [µg/mL] | IC50 A 549 [2] [µg/mL] | IC50 HT 29 [3] [µg/mL] | IC50 MEL 28 [4] [µg/mL] | IC50 ([1]; Mus musculus, P388, 72 h) [µg/mL] | IC50 ([2]; Homo sapiens, A549, 72 h) [µg/mL] | IC50 ([3]; Homo sapiens, HT-29, 72 h) [µg/mL] | Compound
1 | 0.5 | 0.1 | 0.1 | 0.5 | – | – | – | Stolonoxide B methyl ester [Methyl ester (2b)]
2 | – | – | – | – | 0.1 (≈ 0.238 µM) | 0.1 (≈ 0.238 µM) | 0.1 (≈ 0.238 µM) | C=CCC/C=C\C=C/CCCCCC[C@H]1CC[C@@H]([C@H]2CC[C@@H](CC(=O)OC)OO2)O1 [Methyl ester (1b), Stolonoxide A methyl ester]

Reference: patent publication US7153885B2, “Stolonoxides” (Universidad de Cadiz, priority 2000, dated 2006)
